Source: US10174057B2, “Metallacrown complexes and methods of making the same” (THE REGENTS OF THE UNIVERSITY OF MICHIGAN, priority 2013, dated 2019)

Assays:
[1] = Luminescence lifetimes under excitation at 355 nm; type: physicochemical; settings: for τobs: 298 K, excitation 355 nm; for q (inner sphere hydration number): calculated from kCH3OH and kCD3OD
Method: (§1) Luminescence data were collected on samples that were placed into 2.4 mm i.d. quartz capillaries or quartz Suprasil cells. Emission and excitation spectra were measured on a Horiba-Jobin-Yvon Fluorolog 3 spectrofluorimeter equipped with either a visible photomultiplier tube (PMT) (220-800 nm, R928P; Hamamatsu), a NIR solid-state InGaAs detector cooled to 77 K (800-1600 nm, DSS-IGA020L; Jobin-Yvon), or NIR PMTs (950-1450 nm, H10330-45; 950-1650 nm, H10330-75; Hamamatsu). All spectra were corrected for instrumental functions.
Luminescence lifetimes were determined under excitation at 355 nm provided by a Nd:YAG laser (YG 980; Quantel), while the signal was detected in the NIR by the aforementioned PMT (H10330-75). The output signal from the detectors was then fed to a 500 MHz bandpass digital oscilloscope (TDS 754C; Tektronix) and then transferred to a PC for treatment with Origin 8®. Luminescence lifetimes are averages of at least three independent measurements.
(§2) Luminescence spectra were recorded for the Ln(III) metallacrown complexes (Ln(III)=Yb, Nd, Er) in the solid state and in solution (CH3OH/CD3OD) using excitation at 420 nm or 370 nm.

[2] = Quantum yields in the NIR, absolute method using an integration sphere; type: physicochemical; settings: 298 K, excitation 370 nm
Method: as §1
Quantum yields in the NIR were determined with a Fluorolog 3 spectrofluorimeter according to an absolute method using an integration sphere (GMP SA). Each sample was measured several times under slightly different experimental conditions. Estimated experimental error for quantum yields determination is 10%.
as §2

[3] = Emission spectra and ligand energy levels (singlet, triplet, CT); type: physicochemical; settings: for energy of the triplet state: determined on the 0-0 transition
Method: FIG. 3 is a graph depicting the corrected and normalized emission spectra of quinHA (10 mg/mL) under excitation at 290 in methanol at 77 K and Gd(III) MC (10 mg/mL) under excitation at 290 nm or 340 nm in methanol at 298 K and 77 K;
as §1
At 77 K, strong green luminescence centered at 510 nm with a weak band in the 325-460 nm range. The latter band disappeared upon enforcing a delay of 100 μs, so it can be assigned to a short-lived fluorescence while the green emission is phosphorescence. The energy of the triplet state of quinHA, determined on the 0-0 transition, can therefore be estimated as 21 000 cm−1 (476 nm).
The energy gap between ground and excited states for Gd(III) is very high and, therefore, it is impossible for the Gd(III) ion in the corresponding metallacrown complex to be sensitized with 300-400 nm excitation. It is believed that this feature can be used to determine the energy levels of the metallacrown complexes in the absence of energy transfer to the Ln(III) ion. The Gd(III) metallacrown complex was exposed to UV excitation into the ligand-based charge transfer band at 340 nm at room temperature, resulting in a weak broad-band emission with a maximum at 580-590 nm (FIG. 3). Lowering the temperature to 77 K led to a slight sharpening of the band and a shift of the maximum to 545-555 nm (FIG. 3). […] The position of the triplet state determined from the spectrum of Gd(III) metallacrown complex was the same as for quinHA within experimental error, 20 920 cm^−1 (478 nm). The position of the lowest excited singlet and the ligand-based charge transfer (CT) states were determined from the intersection of the absorption and emission (fluorescence) spectra of quinHA and Gd^3+[12-MC-4]2[24-MC-8], respectively, and found to be located at 29 850 cm^−1 (335 nm) and 21 560 cm^−1 ([…]). A proposed schematic diagram of the quinHA ligand's energy levels (singlet, triplet and CT) with respect to the energy levels of Yb(III), Nd(III) and Er(III) lanthanide ions and possible energy migration paths are shown in FIG. 4.

[4] = Absorption spectra in methanol; type: physicochemical; settings: 298 K
Text: FIG. 2 is a graph of the absorption spectra of Ln(III) MC complexes (2.04·10^−5 M, Ln(III)=Gd, Nd, Yb, Er) and quinaldichydroxamic acid (quinHA) (2.42·10^−4 M) in methanol at 298 K, where the absorption spectrum of quinHA was multiplied by 16 times;
Upon deprotonation and formation of the metallacrown framework, Ln(III)[12-MC-4]2[24-MC-8], a broad absorption appears in the near-visible region with an apparent maximum at 380 nm (ε≈5.5·10^4 M^−1 cm^−1) and cutoff at 470 nm. In FIG. 2, the results are shown for the Gd(III), Nd(III), Yb(III), and Er(III).

[5] = system: HeLa (Human Epithelial Ovarian Carcinoma) cells; experiment: NIR epifluorescence microscopy on HeLa cells; type: cell-based
Method: The preparation of the Yb(III) Metallacrowns and the description of the NIR Epifluorescence Microscopy are applicable for both experiments.
Yb^3+[12-MC-4]2[24-MC-8] was prepared as described above, and was dissolved in DMSO at an appropriate concentration, and was used as such or was incubated with beads for incorporation therein.
NIR epifluorescence microscopy was performed with an Axio Observer Z1 fluorescence inverted microscope (Zeiss, Le Pecq, France) equipped with an EMCCD Evolve 512 photometric camera (Roper Scientific). The EMCCD Evolve 512 photometric camera was linked to a computer driving the acquisition software Axiovision (Zeiss). The inverted microscope was equipped with Zeiss objectives (immersion Plan Apochromat 63x (Numerical Aperture (NA)=1.4), Plan Neofluar 40x (NA=0.75), Plan Apochromat 20x (NA=0.8)). A Zeiss HXP-120 light source (metal halide) was used as the excitation system, and was combined with a UV cube filter unit as follows: 377 nm band pass 50 nm filter for excitation, and long pass 805 nm filter for Yb(III) emission in the NIR range. […]
NIR Epifluorescence Microscopy was used to observe the treated cells after 24 hours of incubation with Yb^3+[12-MC-4]2[24-MC-8] and the untreated cells. […] As illustrated in both FIGS. 8E and 8F, the emission in the NIR range for the untreated HeLa cells was not detected. […]

[6] = intersection of absorption and emission spectra
[7] = excitation 290 nm, 77 K, methanol

Compound | τobs ([1]; CD3OD, 0.1 mg/mL) | τobs ([1]; CD3OD, 1 mg/mL) | τobs ([1]; CH3OH, 0.1 mg/mL) | q (inner sphere hydration number) ([1]; CH3OH, 0.1 mg/mL) | τobs ([1]; CH3OH, 1 mg/mL) | q (inner sphere hydration number) ([1]; CH3OH, 1 mg/mL) | τobs ([1]; Solid) | QLn/%L (quantum yield) ([2]; CD3OD, 0.1 mg/mL) | QLn/%L (quantum yield) ([2]; CD3OD, 1 mg/mL) | QLn/%L (quantum yield) ([2]; CH3OH, 0.1 mg/mL) | QLn/%L (quantum yield) ([2]; CH3OH, 1 mg/mL) | QLn/%L (quantum yield) ([2]; Solid) | energy of the triplet state [3] | other results
ErZn16(quinHA)16(OTf)3 [Er(III)MC] | – | 11.40(3) μs | – | – | 1.25(1) μs | – | 5.73(2) μs | – | 3.60(6) · 10^−2% | – | 9.9(3) · 10^−4% | 4.2(1) · 10^−2% | – | –
YbZn16(quinHA)16(OTf)3 [Yb(III)MC] | 144.6(5) μs | 150.7(2) μs | 15.14(4) μs | 0 | 14.88(1) μs | 0 | 47.8(4) μs | 2.91(7) % | 2.88(2) % | 0.27(1) % | 0.25(1) % | 2.44(4) % | – | emission in the NIR range of treated cells ([5]; Experiment 1: 1 μM, 24 hours, λex=377 nm, long pass 805 nm, 500 ms exposure): unambiguously detected; Yb(III) emission in the NIR range of treated cells ([5]; both experiments (1 μM 24 h; 5 μM 11-12 h), short exposure times): unambiguously detected

The next lines start with results.

τobs ([1]; CD3OD, 0.1 mg/mL) | τobs ([1]; CD3OD, 1 mg/mL) | τobs ([1]; CH3OH, 0.1 mg/mL) | q (inner sphere hydration number) ([1]; CH3OH, 0.1 mg/mL) | τobs ([1]; CH3OH, 1 mg/mL) | q (inner sphere hydration number) ([1]; CH3OH, 1 mg/mL) | τobs ([1]; Solid) | QLn/%L (quantum yield) ([2]; CD3OD, 0.1 mg/mL) | QLn/%L (quantum yield) ([2]; CD3OD, 1 mg/mL) | QLn/%L (quantum yield) ([2]; CH3OH, 0.1 mg/mL) | QLn/%L (quantum yield) ([2]; CH3OH, 1 mg/mL) | QLn/%L (quantum yield) ([2]; Solid) | energy of the triplet state [3] | Compound | other results
4.00(1) μs | 4.11(3) μs | 1.16(1) μs | 0 | 1.16(1) μs | 0 | 1.79(2) μs | 1.38(1) % | 1.35(1) % | 0.40(1) % | 0.38(1) % | 1.13(4) % | – | NdZn16(quinHA)16(OTf)3 [Nd(III)MC] | –
– | – | – | – | – | – | – | – | – | – | – | – | 20 920 cm^−1 | GdZn16(quinHA)16(OTf)3 [Gd(III) metallacrown complex] | emission maximum ([3]; 77 K, time delay of 100 μs): 510 nm; emission maximum ([3]; excitation 340 nm, 77 K): 545-555 nm; emission maximum ([3]; excitation 340 nm, room temperature, weak broad-band emission): 580-590 nm; position of the ligand-based charge transfer (CT) state [3, 6]: 21 560 cm^−1
– | – | – | – | – | – | – | – | – | – | – | – | 21 000 cm^−1 | O=C(NO)c1ccc2ccccc2n1 [quinHA, quinaldichydroxamic acid] | long wavelength absorption cutoff [4]: 340 nm; green luminescence (phosphorescence) centre [3, 7]: 510 nm; weak band (short-lived fluorescence) [3, 7]: 325-460 nm; emission upon UV excitation ([3]; excitation 290 nm, room temperature, methanol): did not display any detectable emission; position of the lowest excited singlet state [3, 6]: 29 850 cm^−1; melting point: 146 to 148 °C
